Laboratory results from ChEMBL document CHEMBL1153969, “N-Hydroxy-(4-oxime)-cinnamide: a versatile scaffold for the synthesis of novel histone deacetylase [correction of deacetilase] (HDAC) inhibitors” (Bioorg Med Chem Lett, 2009).
pIC50: −log10 of the molar value.

Columns and labels:
NB-4 = assay: Cytotoxicity against human NB4 cells after 48 hrs by SRB assay; type: functional, cell-based; conditions: NB-4, 48 h
HCT-116 = assay: Cytotoxicity against human HCT116 cells after 48 hrs by SRB assay; type: functional, cell-based; conditions: HCT-116, 48 h
NCI-H460 = assay: Cytotoxicity against human NCI-H460 cells after 48 hrs by SRB assay; type: functional, cell-based; conditions: NCI-H460, 48 h
Histone deacetylase 5 = Histone deacetylase 5 (Homo sapiens, UniProt Q9UQL6); assay: Inhibition of human HDAC5
Histone deacetylase 5, sequence (Q9UQL6 whole entry): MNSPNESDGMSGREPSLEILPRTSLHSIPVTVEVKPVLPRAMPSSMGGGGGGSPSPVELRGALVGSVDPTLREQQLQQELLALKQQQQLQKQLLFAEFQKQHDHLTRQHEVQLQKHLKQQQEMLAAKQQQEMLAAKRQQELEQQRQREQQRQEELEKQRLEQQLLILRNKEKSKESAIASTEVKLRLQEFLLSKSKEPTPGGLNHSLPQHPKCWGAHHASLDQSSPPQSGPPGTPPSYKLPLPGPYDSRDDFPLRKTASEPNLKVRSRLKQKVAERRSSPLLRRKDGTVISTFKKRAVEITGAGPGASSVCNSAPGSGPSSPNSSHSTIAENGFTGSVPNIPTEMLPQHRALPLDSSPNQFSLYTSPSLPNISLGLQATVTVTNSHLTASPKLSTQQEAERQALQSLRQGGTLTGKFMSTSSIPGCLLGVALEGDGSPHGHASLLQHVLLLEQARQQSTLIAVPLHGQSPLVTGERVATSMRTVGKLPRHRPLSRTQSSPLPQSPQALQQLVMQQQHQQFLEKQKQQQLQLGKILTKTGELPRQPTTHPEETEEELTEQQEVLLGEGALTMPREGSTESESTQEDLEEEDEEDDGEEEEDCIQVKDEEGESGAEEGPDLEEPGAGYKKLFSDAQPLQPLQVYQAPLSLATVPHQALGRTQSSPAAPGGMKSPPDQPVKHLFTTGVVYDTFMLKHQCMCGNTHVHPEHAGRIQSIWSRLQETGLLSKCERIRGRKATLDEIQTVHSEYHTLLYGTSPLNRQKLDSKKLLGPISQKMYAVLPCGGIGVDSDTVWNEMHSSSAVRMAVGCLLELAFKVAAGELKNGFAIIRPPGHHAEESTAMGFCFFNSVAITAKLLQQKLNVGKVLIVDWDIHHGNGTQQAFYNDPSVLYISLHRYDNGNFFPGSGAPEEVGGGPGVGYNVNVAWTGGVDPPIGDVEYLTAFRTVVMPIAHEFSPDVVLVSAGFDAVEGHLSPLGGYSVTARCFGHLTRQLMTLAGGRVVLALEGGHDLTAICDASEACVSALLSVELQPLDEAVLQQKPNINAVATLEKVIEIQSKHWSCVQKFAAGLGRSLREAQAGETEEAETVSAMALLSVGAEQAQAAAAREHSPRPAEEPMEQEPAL

[1] = molecular target: T1, Polyamine deacetylase HDAC10 (Homo sapiens, UniProt Q969S8); assay: Inhibition of human HDAC10
T1 sequence (Q969S8 whole entry): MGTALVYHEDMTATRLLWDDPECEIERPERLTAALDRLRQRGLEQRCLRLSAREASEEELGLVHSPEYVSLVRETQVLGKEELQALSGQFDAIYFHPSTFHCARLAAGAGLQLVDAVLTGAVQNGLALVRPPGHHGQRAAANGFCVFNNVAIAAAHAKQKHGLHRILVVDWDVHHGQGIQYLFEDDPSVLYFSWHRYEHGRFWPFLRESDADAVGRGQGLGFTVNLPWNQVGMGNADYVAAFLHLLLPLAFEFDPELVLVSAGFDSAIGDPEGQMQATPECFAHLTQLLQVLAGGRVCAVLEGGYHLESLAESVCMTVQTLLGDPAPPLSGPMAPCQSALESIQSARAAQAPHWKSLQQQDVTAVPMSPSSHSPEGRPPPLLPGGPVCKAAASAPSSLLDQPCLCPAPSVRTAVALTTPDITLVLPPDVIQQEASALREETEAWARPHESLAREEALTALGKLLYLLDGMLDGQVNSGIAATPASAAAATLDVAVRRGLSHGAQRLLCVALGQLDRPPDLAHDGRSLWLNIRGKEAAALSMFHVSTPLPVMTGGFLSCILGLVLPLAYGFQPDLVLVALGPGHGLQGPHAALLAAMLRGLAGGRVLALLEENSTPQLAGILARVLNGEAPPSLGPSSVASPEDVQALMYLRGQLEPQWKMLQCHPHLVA

[2] = molecular target: T2, Protein deacetylase HDAC6 (Homo sapiens, UniProt Q9UBN7); assay: Inhibition of human HDAC6
T2 sequence (Q9UBN7 whole entry): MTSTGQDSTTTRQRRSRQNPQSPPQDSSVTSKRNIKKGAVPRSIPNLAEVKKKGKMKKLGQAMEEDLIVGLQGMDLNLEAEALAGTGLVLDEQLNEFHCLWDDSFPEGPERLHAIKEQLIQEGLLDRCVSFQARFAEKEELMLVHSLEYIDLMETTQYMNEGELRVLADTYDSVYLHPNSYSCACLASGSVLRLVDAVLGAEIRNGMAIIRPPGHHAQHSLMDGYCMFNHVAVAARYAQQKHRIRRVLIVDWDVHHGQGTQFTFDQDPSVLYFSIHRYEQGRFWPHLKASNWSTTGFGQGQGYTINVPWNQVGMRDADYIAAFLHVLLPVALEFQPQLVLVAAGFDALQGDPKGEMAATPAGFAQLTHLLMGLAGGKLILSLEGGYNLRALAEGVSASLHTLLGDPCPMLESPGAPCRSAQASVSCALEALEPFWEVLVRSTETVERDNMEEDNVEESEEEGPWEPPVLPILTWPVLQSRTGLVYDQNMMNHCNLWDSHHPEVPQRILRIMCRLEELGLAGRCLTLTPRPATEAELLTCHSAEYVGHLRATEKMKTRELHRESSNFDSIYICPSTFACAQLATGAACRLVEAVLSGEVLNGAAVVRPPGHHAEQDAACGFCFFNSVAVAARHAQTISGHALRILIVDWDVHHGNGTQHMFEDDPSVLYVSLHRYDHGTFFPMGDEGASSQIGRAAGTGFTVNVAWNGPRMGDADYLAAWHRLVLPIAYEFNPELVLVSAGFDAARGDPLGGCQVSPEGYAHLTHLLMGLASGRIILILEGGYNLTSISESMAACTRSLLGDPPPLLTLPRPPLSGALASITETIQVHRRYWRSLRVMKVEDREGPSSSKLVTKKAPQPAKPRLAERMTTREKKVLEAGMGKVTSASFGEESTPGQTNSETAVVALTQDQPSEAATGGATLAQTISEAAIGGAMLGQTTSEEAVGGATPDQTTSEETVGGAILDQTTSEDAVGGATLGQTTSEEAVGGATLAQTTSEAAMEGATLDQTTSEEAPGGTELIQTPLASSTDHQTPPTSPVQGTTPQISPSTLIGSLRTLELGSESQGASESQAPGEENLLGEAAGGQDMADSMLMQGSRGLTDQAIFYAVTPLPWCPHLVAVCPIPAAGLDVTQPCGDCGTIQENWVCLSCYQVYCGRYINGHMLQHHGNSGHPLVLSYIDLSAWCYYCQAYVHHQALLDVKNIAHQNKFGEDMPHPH

Histone deacetylase 9 = Histone deacetylase 9 (Homo sapiens, UniProt Q9UKV0); assay: Inhibition of human HDAC9
Histone deacetylase 9, sequence (Q9UKV0 whole entry): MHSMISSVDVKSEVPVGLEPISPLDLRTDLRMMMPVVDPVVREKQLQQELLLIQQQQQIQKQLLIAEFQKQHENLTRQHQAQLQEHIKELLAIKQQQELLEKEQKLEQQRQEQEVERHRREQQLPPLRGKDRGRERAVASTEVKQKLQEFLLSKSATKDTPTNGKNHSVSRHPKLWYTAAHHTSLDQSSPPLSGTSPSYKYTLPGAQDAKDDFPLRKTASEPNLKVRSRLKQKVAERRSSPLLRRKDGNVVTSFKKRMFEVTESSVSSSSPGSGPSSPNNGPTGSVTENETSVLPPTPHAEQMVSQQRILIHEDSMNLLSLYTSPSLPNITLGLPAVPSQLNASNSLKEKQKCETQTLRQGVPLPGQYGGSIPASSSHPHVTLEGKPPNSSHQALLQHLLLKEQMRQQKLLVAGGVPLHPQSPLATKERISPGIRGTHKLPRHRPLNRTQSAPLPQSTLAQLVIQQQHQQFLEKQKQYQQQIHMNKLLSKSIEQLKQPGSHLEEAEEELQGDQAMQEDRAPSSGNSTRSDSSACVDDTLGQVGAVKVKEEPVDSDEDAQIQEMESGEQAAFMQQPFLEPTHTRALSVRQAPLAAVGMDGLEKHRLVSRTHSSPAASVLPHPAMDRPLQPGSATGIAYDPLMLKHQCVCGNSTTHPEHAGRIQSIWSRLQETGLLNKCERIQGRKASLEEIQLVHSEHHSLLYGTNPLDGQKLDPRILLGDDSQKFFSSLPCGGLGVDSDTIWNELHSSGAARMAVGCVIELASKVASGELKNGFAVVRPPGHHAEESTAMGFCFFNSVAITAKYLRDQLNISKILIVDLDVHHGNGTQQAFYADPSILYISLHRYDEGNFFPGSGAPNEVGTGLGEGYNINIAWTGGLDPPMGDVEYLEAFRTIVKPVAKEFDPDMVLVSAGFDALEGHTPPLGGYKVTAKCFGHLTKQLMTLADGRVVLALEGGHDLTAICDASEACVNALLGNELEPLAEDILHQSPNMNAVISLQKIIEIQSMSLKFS

Histone deacetylase 4 = Histone deacetylase 4 (Homo sapiens, UniProt P56524)
Histone deacetylase 4, sequence (P56524 whole entry): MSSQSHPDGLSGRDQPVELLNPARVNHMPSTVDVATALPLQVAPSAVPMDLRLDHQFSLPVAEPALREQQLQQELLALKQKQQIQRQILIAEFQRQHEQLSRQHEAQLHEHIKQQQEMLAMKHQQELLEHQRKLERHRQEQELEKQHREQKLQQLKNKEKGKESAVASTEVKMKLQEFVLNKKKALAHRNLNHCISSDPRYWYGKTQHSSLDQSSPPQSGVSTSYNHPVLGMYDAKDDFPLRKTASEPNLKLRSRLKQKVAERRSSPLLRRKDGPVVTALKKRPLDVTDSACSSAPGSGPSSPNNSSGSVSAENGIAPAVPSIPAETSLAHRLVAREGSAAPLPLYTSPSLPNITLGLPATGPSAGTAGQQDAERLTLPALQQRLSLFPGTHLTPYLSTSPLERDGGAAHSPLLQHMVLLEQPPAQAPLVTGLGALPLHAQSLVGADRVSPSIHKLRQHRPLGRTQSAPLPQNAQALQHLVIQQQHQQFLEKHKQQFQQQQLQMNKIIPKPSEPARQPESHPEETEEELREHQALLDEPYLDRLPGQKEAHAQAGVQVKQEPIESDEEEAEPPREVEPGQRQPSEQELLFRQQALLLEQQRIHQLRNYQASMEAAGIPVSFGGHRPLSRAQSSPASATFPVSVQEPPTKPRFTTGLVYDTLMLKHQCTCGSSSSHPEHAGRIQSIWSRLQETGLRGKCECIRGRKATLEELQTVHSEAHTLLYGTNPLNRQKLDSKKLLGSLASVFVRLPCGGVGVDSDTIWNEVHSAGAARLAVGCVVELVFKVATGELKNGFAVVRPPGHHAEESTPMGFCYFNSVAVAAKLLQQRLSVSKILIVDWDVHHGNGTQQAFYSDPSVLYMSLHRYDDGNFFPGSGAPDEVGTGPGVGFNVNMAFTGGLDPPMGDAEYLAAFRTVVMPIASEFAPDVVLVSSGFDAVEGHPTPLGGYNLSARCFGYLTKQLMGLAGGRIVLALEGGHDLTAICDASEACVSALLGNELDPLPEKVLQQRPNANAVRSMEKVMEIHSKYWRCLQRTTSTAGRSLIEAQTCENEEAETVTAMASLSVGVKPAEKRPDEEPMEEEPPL
Description: Inhibition of human HDAC4

Histone deacetylase 3 = Histone deacetylase 3 (Homo sapiens, UniProt O15379); assay: Inhibition of human HDAC3
Histone deacetylase 3, sequence (O15379 whole entry): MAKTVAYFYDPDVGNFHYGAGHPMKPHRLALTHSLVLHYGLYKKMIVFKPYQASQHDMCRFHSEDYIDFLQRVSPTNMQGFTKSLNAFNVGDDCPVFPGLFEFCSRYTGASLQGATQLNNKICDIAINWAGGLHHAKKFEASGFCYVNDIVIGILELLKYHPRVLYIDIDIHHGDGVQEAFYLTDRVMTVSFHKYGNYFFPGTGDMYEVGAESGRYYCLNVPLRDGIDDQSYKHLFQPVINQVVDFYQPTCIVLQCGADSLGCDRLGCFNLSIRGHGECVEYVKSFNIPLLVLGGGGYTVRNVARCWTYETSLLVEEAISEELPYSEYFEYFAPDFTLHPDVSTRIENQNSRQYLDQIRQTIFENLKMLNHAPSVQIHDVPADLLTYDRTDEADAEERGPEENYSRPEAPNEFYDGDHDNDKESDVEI

Histone deacetylase 8 = molecular target: T3, Histone deacetylase 8 (Homo sapiens, UniProt Q9BY41); assay: Inhibition of human HDAC8
T3 sequence (Q9BY41 whole entry): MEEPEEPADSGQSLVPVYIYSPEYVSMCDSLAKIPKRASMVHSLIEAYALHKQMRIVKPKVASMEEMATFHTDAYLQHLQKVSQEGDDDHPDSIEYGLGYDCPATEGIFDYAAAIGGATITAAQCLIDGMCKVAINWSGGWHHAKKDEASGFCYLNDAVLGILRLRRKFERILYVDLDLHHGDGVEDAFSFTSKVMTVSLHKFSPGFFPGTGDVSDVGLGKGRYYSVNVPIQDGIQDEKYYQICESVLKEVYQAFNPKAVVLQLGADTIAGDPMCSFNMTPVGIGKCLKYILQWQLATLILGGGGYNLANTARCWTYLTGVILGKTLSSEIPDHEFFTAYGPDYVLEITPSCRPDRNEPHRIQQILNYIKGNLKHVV

Histone deacetylase 1 = Histone deacetylase 1 (Homo sapiens, UniProt Q13547)
Histone deacetylase 1, sequence (Q13547 whole entry): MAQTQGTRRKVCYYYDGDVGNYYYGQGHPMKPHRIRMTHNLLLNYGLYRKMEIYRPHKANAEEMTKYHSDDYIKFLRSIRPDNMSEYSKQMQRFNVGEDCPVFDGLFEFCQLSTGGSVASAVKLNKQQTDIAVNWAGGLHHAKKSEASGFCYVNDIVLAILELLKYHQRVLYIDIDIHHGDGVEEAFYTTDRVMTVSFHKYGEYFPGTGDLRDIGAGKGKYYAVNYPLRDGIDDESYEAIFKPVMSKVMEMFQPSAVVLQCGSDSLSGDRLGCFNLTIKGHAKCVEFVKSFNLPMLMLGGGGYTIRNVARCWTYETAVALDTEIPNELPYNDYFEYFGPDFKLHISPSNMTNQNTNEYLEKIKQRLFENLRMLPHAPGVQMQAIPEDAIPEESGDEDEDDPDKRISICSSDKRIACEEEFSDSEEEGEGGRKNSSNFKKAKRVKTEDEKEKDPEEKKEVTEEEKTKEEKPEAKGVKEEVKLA

Histone deacetylase 11 = molecular target: T4, Histone deacetylase 11 (Homo sapiens, UniProt Q96DB2); assay: Inhibition of human HDAC11
T4 sequence (Q96DB2 whole entry): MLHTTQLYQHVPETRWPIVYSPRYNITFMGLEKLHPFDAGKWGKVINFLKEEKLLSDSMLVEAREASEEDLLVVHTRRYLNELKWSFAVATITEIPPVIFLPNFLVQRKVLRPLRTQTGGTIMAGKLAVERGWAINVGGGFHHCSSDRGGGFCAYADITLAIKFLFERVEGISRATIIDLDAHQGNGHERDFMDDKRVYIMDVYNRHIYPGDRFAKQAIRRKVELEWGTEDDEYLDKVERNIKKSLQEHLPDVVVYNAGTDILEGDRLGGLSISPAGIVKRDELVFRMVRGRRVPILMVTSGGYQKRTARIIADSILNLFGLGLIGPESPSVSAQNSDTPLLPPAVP

Histone deacetylase 2 = Histone deacetylase 2 (Homo sapiens, UniProt Q92769); assay: Inhibition of human HDAC2
Histone deacetylase 2, sequence (Q92769 whole entry): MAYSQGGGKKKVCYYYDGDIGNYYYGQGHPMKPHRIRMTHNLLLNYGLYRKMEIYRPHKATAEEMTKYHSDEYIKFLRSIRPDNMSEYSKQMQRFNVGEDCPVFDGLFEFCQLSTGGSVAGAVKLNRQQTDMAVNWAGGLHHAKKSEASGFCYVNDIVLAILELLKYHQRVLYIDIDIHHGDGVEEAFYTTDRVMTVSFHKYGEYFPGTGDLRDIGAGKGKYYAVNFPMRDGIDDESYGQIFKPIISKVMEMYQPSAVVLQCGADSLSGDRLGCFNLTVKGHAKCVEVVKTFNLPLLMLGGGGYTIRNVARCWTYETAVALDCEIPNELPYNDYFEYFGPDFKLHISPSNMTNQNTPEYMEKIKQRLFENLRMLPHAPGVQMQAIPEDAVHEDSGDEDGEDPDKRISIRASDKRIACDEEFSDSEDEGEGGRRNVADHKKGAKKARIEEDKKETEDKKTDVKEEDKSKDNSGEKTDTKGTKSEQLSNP

Histone deacetylase 7 = molecular target: T5, Histone deacetylase 7 (Homo sapiens, UniProt Q8WUI4); assay: Inhibition of human HDAC7
T5 sequence (Q8WUI4 whole entry): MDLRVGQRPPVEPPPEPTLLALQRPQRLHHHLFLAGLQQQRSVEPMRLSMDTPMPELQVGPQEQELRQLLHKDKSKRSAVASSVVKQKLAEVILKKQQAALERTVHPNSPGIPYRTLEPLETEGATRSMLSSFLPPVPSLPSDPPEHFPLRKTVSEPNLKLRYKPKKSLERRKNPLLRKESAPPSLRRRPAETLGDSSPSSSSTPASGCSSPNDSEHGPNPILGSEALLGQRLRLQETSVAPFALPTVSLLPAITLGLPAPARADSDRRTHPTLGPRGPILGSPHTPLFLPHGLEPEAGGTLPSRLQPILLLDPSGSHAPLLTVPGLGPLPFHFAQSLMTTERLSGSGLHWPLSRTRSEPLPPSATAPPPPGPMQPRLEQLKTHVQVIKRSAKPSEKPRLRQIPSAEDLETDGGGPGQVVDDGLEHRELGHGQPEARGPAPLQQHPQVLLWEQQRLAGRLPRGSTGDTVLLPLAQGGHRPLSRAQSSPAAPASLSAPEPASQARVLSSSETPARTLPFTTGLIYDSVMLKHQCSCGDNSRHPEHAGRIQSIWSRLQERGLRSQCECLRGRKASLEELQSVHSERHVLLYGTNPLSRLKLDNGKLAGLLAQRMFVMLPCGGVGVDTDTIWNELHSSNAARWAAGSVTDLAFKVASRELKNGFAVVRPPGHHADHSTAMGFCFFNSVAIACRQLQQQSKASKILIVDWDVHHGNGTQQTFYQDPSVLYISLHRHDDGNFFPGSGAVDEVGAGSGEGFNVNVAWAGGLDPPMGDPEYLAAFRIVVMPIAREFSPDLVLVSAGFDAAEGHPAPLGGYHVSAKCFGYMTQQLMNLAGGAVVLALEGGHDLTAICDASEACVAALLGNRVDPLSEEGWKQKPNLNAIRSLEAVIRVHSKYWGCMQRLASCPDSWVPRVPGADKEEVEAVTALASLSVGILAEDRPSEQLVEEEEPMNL

## O=C(/C=C/c1ccc(/C=N/O)cc1)NO
NB-4
  pIC50: 5.54
HCT-116
  pIC50: 5.46
NCI-H460
  pIC50: 5.20

## O=C(/C=C/c1cccc(/C=N/OCCN2CCOCC2)c1)NO
NB-4
  pIC50: 5.72
HCT-116
  pIC50: 5.40
NCI-H460
  pIC50: 5.18

## O=C(/C=C/c1ccc(/C=N/Oc2ccccc2)cc1)NO
NB-4
  pIC50: 5.57
HCT-116
  pIC50: 5.43
NCI-H460
  pIC50: 5.29

## O=C(C#Cc1ccc(/C=N/OCc2ccc([N+](=O)[O-])cc2)cc1)NO
NB-4
  pIC50: < 4.70
HCT-116
  pIC50: < 4.70
NCI-H460
  pIC50: < 4.70

## COC(=O)c1ccc(CO/N=C/c2ccc(/C=C/C(=O)NO)cc2)cc1
Histone deacetylase 5
  pIC50: 5.44
[1]
  pIC50: 5.27
[2]
  pIC50: 7.03
Histone deacetylase 9
  pIC50: 5.19
NB-4
  pIC50: 6.09
Histone deacetylase 4
  pIC50: 4.89
Histone deacetylase 3
  pIC50: 6.18
Histone deacetylase 8
  pIC50: 6.22
HCT-116
  pIC50: 5.77
Histone deacetylase 1
  pIC50: 5.74
NCI-H460
  pIC50: 5.77
Histone deacetylase 11
  pIC50: 4.97
Histone deacetylase 2
  pIC50: 4.80

## O=C(/C=C/c1ccc(/C=N/OCc2c(F)c(F)c(F)c(F)c2F)cc1)NO
Histone deacetylase 5
  pIC50: 5.14
[1]
  pIC50: 5.13
[2]
  pIC50: 6.18
Histone deacetylase 9
  pIC50: 4.92
NB-4
  pIC50: 6.15
Histone deacetylase 4
  pIC50: 4.41
Histone deacetylase 3
  pIC50: 5.55
Histone deacetylase 8
  pIC50: 5.89
HCT-116
  pIC50: 5.62
Histone deacetylase 1
  pIC50: 5.26
NCI-H460
  pIC50: 5.80
Histone deacetylase 11
  pIC50: 5.26
Histone deacetylase 2
  pIC50: 4.96

## O=C(/C=C/c1ccc(/C=N/OCc2ccc([N+](=O)[O-])cc2)cc1)NO
Histone deacetylase 5
  pIC50: 5.94
[1]
  pIC50: 5.80
[2]
  pIC50: 6.91
Histone deacetylase 9
  pIC50: 5.61
NB-4
  pIC50: 6.12
Histone deacetylase 4
  pIC50: 5.69
Histone deacetylase 3
  pIC50: 6.80
Histone deacetylase 8
  pIC50: 7.15
HCT-116
  pIC50: 5.92
Histone deacetylase 7
  pIC50: 5.64
Histone deacetylase 1
  pIC50: 6.10
NCI-H460
  pIC50: 5.59
Histone deacetylase 11
  pIC50: 6.10
Histone deacetylase 2
  pIC50: 5.57

## Nc1ccccc1NC(=O)/C=C/c1ccc(/C=N/OCCN2CCOCC2)cc1
NB-4
  pIC50: 5.05
HCT-116
  pIC50: < 4.70
NCI-H460
  pIC50: < 4.70

## O=C(CCc1ccc(/C=N/OCc2ccc([N+](=O)[O-])cc2)cc1)NO
NB-4
  pIC50: 6.02
HCT-116
  pIC50: 5.51
NCI-H460
  pIC50: 5.11

## C=CCO/N=C/c1ccc(/C=C/C(=O)NO)cc1
NB-4
  pIC50: 5.85
HCT-116
  pIC50: 5.46
NCI-H460
  pIC50: 5.49

## O=C(/C=C/c1ccc(/C=N/OCCN2CCOCC2)cc1)NO
Histone deacetylase 5
  pIC50: 5.13
[1]
  pIC50: 5.11
[2]
  pIC50: 6.52
Histone deacetylase 9
  pIC50: 4.88
NB-4
  pIC50: 5.77
Histone deacetylase 4
  pIC50: 4.79
Histone deacetylase 3
  pIC50: 5.39
Histone deacetylase 8
  pIC50: 6.63
HCT-116
  pIC50: 5.74
Histone deacetylase 1
  pIC50: 5.51
NCI-H460
  pIC50: 5.54
Histone deacetylase 11
  pIC50: 5.51
Histone deacetylase 2
  pIC50: 4.56

## Nc1ccccc1NC(=O)/C=C/c1ccc(/C=N/OCc2ccc([N+](=O)[O-])cc2)cc1
NB-4
  pIC50: < 4.70
HCT-116
  pIC50: < 4.70
NCI-H460
  pIC50: < 4.70

## O=C(/C=C/c1ccc(/C=N/OCc2ccccc2)cc1)NO
NB-4
  pIC50: 6.21
HCT-116
  pIC50: 5.55
NCI-H460
  pIC50: 5.80

## O=C(/C=C/c1ccc(-c2cc(CN3CCOCC3)on2)cc1)NO
Histone deacetylase 5
  pIC50: 4.97
[1]
  pIC50: 5.21
Histone deacetylase 9
  pIC50: 4.95
Histone deacetylase 3
  pIC50: 5.50
Histone deacetylase 8
  pIC50: 6.90
HCT-116
  pIC50: 5.40
Histone deacetylase 7
  pIC50: 4.65
Histone deacetylase 1
  pIC50: 5.20
NCI-H460
  pIC50: 5.15
Histone deacetylase 11
  pIC50: 5.20

## O=C(/C=C/c1ccc(C2=NOC(CN3CCOCC3)C2)cc1)NO (configuration not stated)
HCT-116
  pIC50: 5.52
NCI-H460
  pIC50: 5.00
